# Where two headings read alike, the source gives them in different places.
# Key:
# HepG2 cells = assay: Triglyceride (TAG) measurement assay, one week steatosis model; assay type: cell-based, human; details: for activity at 10 µM: Homo sapiens
# Description: (§1) HepG2 wild type cells were purchased from genome engineering company Synthego. Cells were maintained with Roswell Park Memorial Institute growth media, RPMI, 1640 (R2405, Sigma-Aldrich) and supplemented with 10% fetal bovine serum (FBS, F7524, Sigma-Aldrich), 1% penicillin-streptomycin (P/S, P4333, Sigma-Aldrich). Steatosis induction media was prepared as high glucose Dulbecco's Modified Eagle Media (DMEM, D0819, Sigma-Aldrich) with 10% FBS, 1% P/S media supplemented with 10 μg/ml insulin (I9278, Sigma-Aldrich), and 10 μM T0901317 (T2320, Sigma-Aldrich). HepG2 cells were seeded 6×10^4 cells per well for 96-well plate and 1×10^6 cells per well for 6-well plate. HepG2 cells were incubated with steatosis induce media (SM) for one week by 3 day+2 day+2 day with total three times media exchange.
# HepG2 cells were seeded at 6×10^4 cells per well into 96 well plate and induced steatosis for one week with 10 μM of target drugs. After steatosis induction, cells were washed with 200 μl of phosphate buffered saline (PBS) and triglyceride contents was measured by Triglyceride Assay Kit—Quantification (ab65336, Abcam) following manufacturer's instruction. Optical density (O.D) values were detected with microplate reader at 570 nm (Hidex Sense Beta Plus).
# (§2) HepG2 cells were seeded at 60,000 cells per well in 96 well plate. Using steatosis induce media, the cells were treated with 10 μM of target drugs for one week. The media was changed 3 times at day 0, day 3 and day 5. TAG assay was performed using MAK266-1KT SDS Triglyceride Quantification Colorimetric kit and cell viability analysis was performed using MTT assay.
# [1] = MTT cell viability after one week steatosis (ranking of target molecules); assay type: cell-based, human; details: human, HepG2 cells (wild type); HepG2, 10 μM, one week steatosis induce media, MTT; Control 100.00
# Description: as §1, §2
# [2] = 168 h, HepG2, 10 μM, one week steatosis induce media, Control 100.00, read-out: TAG (%)
# [3] = HepG2, 168 h, ratio between TAG content and cell viability, Control 100.0, read-out: TAG/cell viability
SMILES,activity at 10 µM (HepG2 cells; [2]) [%],activity at 10 µM (HepG2 cells; [3]) [%],"viability at 1 week, 10 µM [1] [%]",TAG content/cell viability ratio lower than JNK-IN-5A (HepG2 cells),ratio between TAG content and cell viability (HepG2 cells),TAG/cell viability (HepG2 cells; ratio as printed in text with %) [%]
"N#Cc1c(NC(=O)c2cccc3ccccc23)sc2c1CCCCC2 [PKL-A56, N-(3-cyano-5,6,7,8-tetrahydro-4H-cyclohepta[b]thiophen-2-yl)-1-naphthamide]",35.6,62.5,57,–,–,–
CC(=O)N1CCc2c(sc(NC(=O)c3cccc4ccccc34)c2C#N)C1 [PKL-A114],14.1,28.6,49.4,–,–,–
CCOC(=O)CN1CCc2c(sc(NC(=O)c3cccc4ccccc34)c2C#N)C1 [PKL-A118],62.1,68.2,91,–,–,–
COc1ccc(C(=O)Nc2sc3ccccc3c2C#N)c2ccccc12 [PKL-A149],30.8,60.5,50.9,–,–,–
COc1cccc(NC(=O)N2CCc3c(sc(NC(=O)c4cccc5ccccc45)c3C#N)C2)c1 [PKL-A151],11.5,18.7,61.6,more than 3 times,low ratio between TAG content and cell viability,–
Cc1ccccc1NC(=O)N1CCc2c(sc(NC(=O)c3cccc4ccccc34)c2C#N)C1 [PKL-A153],13.2,31.2,42.5,–,–,–
N#Cc1c(NC(=O)c2cccc3ccccc23)sc2c1CCN(C(=O)Nc1ccccc1[N+](=O)[O-])C2 [PKL-A154],13.9,30.3,46,–,–,–
N#Cc1c(NC(=O)c2cccc3ccccc23)sc2c1CCN(C(=O)Nc1ccccc1Br)C2 [PKL-A157],12.8,35.1,36.5,–,–,–
Cc1ccc(F)c(NC(=O)N2CCc3c(sc(NC(=O)c4cccc5ccccc45)c3C#N)C2)c1 [PKL-A160],14.9,26.4,56.4,–,–,–
N#Cc1c(NC(=O)c2cccc3ccccc23)sc2c1CCN(C(=O)Nc1cccc3ccccc13)C2 [PKL-A161],13.2,29.8,44.1,–,–,–
CN(C(=O)N1CCc2c(sc(NC(=O)c3cccc4ccccc34)c2C#N)C1)c1ccccc1 [PKL-A162],12.3,25.1,49.2,–,low ratio between TAG content and cell viability,25.1
CCN(C)C(=O)N1CCc2c(sc(NC(=O)c3cccc4ccccc34)c2C#N)C1 [PKL-A163],12.7,27.2,46.6,–,–,–
N#Cc1c(NC(=O)c2cccc3ccccc23)sc2c1CCN(C(=O)N(c1ccccc1)c1ccccc1)C2 [PKL-A164],17.3,37.6,46,–,–,–
COc1ccc(S(=O)(=O)N2CCc3c(sc(NC(=O)c4cccc5ccccc45)c3C#N)C2)cc1OC [PKL-A179],34.7,52.2,66.5,–,–,–
N#Cc1c(NC(=O)c2cccc3ccccc23)sc2c1CCN(S(=O)(=O)c1cccc3ccccc13)C2 [PKL-A183],48.6,67.2,72.3,–,–,–
C=CC(=O)N1CCc2c(sc(NC(=O)c3cccc4ccccc34)c2C#N)C1 [PKL-A190],24.2,31.8,76.2,–,–,–
N#Cc1c(NC(=O)c2cccc3ccccc23)sc2c1CCN(C(=O)c1cccc(F)c1)C2 [PKL-A192],22.9,38,60.1,–,–,–
N#Cc1ccc(C(=O)N2CCc3c(sc(NC(=O)c4cccc5ccccc45)c3C#N)C2)cc1 [PKL-A193],23.4,37.6,62.3,–,–,–
C=CCN1CCc2c(sc(NC(=O)c3cccc4ccccc34)c2C#N)C1 [PKL-B129],35.5,49.9,71.2,–,–,–
N#Cc1c(NC(=O)c2cccc3ccccc23)sc2c1CCN(CC(=O)c1ccccc1)C2 [PKL-B130],16.8,26.2,64.1,–,–,–
CC(C)CCN1CCc2c(sc(NC(=O)c3cccc4ccccc34)c2C#N)C1 [PKL-B133],28.1,40.6,69.3,–,–,–
"N#Cc1c(NC(=O)c2cccc3ccccc23)sc2c1CCN(CCn1cnc3ccccc31)C2 [PKL-B153, N-(6-(2-(1H-benzo[d]imidazol-1-yl)ethyl)-3-cyano-4,5,6,7-tetrahydrothieno[2,3c]pyridin-2-yl)-1-naphthamide]",34.3,46.4,74,–,–,–
N#Cc1c(NC(=O)c2cccc3ccccc23)sc2c1CCN(CC(=O)NC1CCOCC1)C2 [PKL-B164],36.8,49.6,74.1,–,–,–
C#Cc1cccc(NC(=O)CN2CCc3c(sc(NC(=O)c4cccc5ccccc45)c3C#N)C2)c1 [PKL-B170],55.6,84.2,66,–,–,–
N#Cc1c(NC(=O)c2cccc3ccccc23)sc2c1CCN(CC(=O)Nc1ccccc1)C2 [PKL-B173],34.7,49,70.8,–,–,–

# Reference: patent publication US20260234159A1, “SMALL MOLECULE TREATMENT OF FATTY LIVER DISEASE AND HCC” (SCANDIEDGE THERAPEUTICS AB, priority 2023, published 2026)
